Laboratory results: paper PMC3222680 (PLoS ONE, 2011)

Experiments:
[1] = test system: chimera α–β or chimera β–α transfected alone; assay: Whole cell patch-clamp, chimeras transfected alone into HEK293 cells; format: cell-based, human; conditions: glycine up to 100 mM, data not shown
Method: (§1) The human GlyR α1 and β subunit cDNAs were subcloned into the pcDNA3.1zeo+ (Invitrogen) or pGEMHE [44] plasmid vectors for expression in HEK293 cells or Xenopus oocytes, respectively. Site-directed mutagenesis and chimera construction were performed using the QuickChange (Stratagene, La Jolla, CA, USA) mutagenesis and multiple-template-based sequential PCR protocols, respectively.
(§2) The effects of the hyperekplexia-mimicking mutations, K24′A, V25′A and Y27′A, were examined on GlyRs expressed in HEK293 cells (ATCC). Details of the HEK293 cell culture, GlyR expression and electrophysiological recording of the HEK293 cells are described elsewhere. Briefly, HEK293 cells were maintained in DMEM supplemented with 10% fetal bovine serum. Cells were transfected using a calcium phosphate precipitation protocol. When co-transfecting the α1 together with the β or any other chimera subunits, their respective cDNAs were combined in a ratio of 1∶10. In addition, the pEGFP-N1 (Clontech) was co-transfected to facilitate identifying the transfected cells. […] Cells were treated with external Ringer's solution and internal CsCl solution [30]. Cells were voltage-clamped at −40 mV. When the heteromeric GlyRs were expressed, the picrotoxin sensitivity was tested to confirm that the majority of receptors are heteromers, [30].

αY27′A β-αWT GlyR = αY27′A β-αWT GlyR (Homo sapiens, UniProt P23415+P48167, Y307A)
Method: as §1
For the β-α chimeras used for determining the effect of hyperekplexia-mimicking mutations on α1 β GlyR channel function, the Thr at the M2 6′ position was replaced by a Cys. […] Through such a modification, picrotoxin resistance was used to distinguish the heteromeric α1 β-α GlyR from the homomeric α1 GlyR when the α1 and β-α subunits were co-expressed.
The effects of the hyperekplexia-mimicking mutations, K24′A, V25′A and Y27′A, were examined on GlyRs expressed in HEK293 cells (ATCC). Details of the HEK293 cell culture, GlyR expression and electrophysiological recording of the HEK293 cells are described elsewhere. Briefly, HEK293 cells were maintained in DMEM supplemented with 10% fetal bovine serum. Cells were transfected using a calcium phosphate precipitation protocol. […]
(§3) Results are expressed as mean±standard error of the mean of three or more independent experiments. […] Statistical significance was determined using the Student's t-test.

homomeric α1Y27′A GlyR = homomeric α1Y27′A GlyR (Homo sapiens, UniProt P23415, Y307A); conditions: HEK293
Method: as §1, §2

αY27′A βWT GlyR = αY27′A βWT GlyR (Homo sapiens, UniProt P23415+P48167, Y307A)
Method: as §1, §2, §3

αY27′A α-βWT GlyR = αY27′A α-βWT GlyR (Homo sapiens, UniProt P23415+P48167, Y307A)
Method: as §1, §2, §3

αWT αT-β19′C GlyR = αWT αT-β19′C GlyR (Homo sapiens, UniProt P23415+P48167, A317C/C137A/C313A/C69A/Q95A); conditions: MTSR-labeled, oocytes
Method: as §1
(§4) For the VCF experiments, both GlyR α1 and β subunit cDNAs in the pGEMHE vector were mutated to substitute non-essential background cysteines with alanines, including α1C41A and βC115AC291A [46], [47].
(§5) VCF experiments were performed on GlyRs expressed in Xenopus laevis oocytes. Female Xenopus laevis frogs were purchased from Xenopus Express, France. Details of oocyte preparation, GlyR expression and VCF recording are described elsewhere. Briefly, the mMessage mMachine kit (Ambion, Austin, TX) was used to generate capped mRNA. The mRNA was injected into oocytes of the female Xenopus laevis frog with 10 ng (1 ng α1 and 9 ng β or any other chimeric subunits) per oocyte. After injection, the oocytes were incubated in ND96 solution [33] for 3–4 days at 18 °C before recording.
(§6) The sulfhydryl-reactive reagent, sulforhodamine methanethiosulfonate (MTSR, Toronto Research Chemicals, North York, Ontario, Canada), was used to label 19′C residues. […] The oocytes were then transferred to the recording chamber and perfused with ND96 solution. The current was recorded by the two-electrode voltage clamp configuration and the recording electrode was filled with 3 M KCl. Cells were voltage-clamped at −40 mV. The fluorescence was recorded using the PhotoMax 200 photodiode detection system (Dagan Corp., Minneapolis, MN).
as §3

αWT β19′C GlyR = αWT β19′C GlyR (Homo sapiens, UniProt P23415+P48167, A317C/C137A/C313A/C69A); conditions: MTSR-labeled, oocytes
Method: as §1, §4, §5, §6, §3

αWT αB-β19′C GlyR = αWT αB-β19′C GlyR (Homo sapiens, UniProt P23415+P48167, A80Q/C69A); conditions: MTSR-labeled, oocytes
Method: as §1, §4, §5, §6, §3

α19′C βWT GlyR = α19′C βWT GlyR (Homo sapiens, UniProt P23415+P48167, C137A/C313A/C69A/R299C); conditions: MTSR-labeled, oocytes
Method: as §1, §4, §5, §6, §3

αWT β-α19′C GlyR = αWT β-α19′C GlyR (Homo sapiens, UniProt P23415+P48167, C137A/C69A/R299C); conditions: MTSR-labeled, oocytes
Method: as §1, §4, §5, §6, §3

αWT α-β19′C GlyR = αWT α-β19′C GlyR (Homo sapiens, UniProt P23415+P48167, C69A); conditions: MTSR-labeled, oocytes
Method: as §1, §4, §5, §6, §3

[2] = test system: α-β, β-α, αB-β and αT-β subunits expressed alone; conditions: chimeric subunits expressed alone in oocytes; data not shown
Method: as §5, §6

[3] = Hill coefficient of glycine-induced current

αWT β-α19′C GlyR, sequence (P23415 29-449 isoform P23415-2 C69A): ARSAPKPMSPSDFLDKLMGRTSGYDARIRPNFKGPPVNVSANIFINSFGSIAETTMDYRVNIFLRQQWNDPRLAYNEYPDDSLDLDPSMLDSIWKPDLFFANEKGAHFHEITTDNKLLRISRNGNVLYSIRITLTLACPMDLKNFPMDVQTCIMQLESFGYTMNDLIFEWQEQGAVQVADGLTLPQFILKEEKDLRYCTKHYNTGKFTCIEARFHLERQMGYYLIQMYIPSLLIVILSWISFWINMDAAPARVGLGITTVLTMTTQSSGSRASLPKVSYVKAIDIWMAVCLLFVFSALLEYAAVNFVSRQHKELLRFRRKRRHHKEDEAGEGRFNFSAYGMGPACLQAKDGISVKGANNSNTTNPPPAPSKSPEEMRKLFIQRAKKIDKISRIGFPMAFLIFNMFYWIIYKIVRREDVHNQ
αWT β-α19′C GlyR, sequence (P48167+P23415 fused with the stated changes): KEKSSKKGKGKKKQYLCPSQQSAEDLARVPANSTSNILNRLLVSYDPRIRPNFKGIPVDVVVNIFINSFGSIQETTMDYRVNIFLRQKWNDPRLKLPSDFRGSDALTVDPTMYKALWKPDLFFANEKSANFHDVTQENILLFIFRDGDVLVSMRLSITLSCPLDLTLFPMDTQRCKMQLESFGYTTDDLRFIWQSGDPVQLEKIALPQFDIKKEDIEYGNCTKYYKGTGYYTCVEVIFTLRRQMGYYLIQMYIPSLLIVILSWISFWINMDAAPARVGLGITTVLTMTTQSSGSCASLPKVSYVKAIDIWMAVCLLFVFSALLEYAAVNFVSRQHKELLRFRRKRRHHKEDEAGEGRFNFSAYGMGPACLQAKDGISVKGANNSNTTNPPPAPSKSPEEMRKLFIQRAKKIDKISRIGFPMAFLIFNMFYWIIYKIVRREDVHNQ
αWT α-β19′C GlyR, sequence (P23415 29-449 isoform P23415-2 C69A): as the sequence (P23415 29-449 isoform P23415-2 C69A) above
αWT α-β19′C GlyR, sequence (P23415+P48167 fused with the stated changes): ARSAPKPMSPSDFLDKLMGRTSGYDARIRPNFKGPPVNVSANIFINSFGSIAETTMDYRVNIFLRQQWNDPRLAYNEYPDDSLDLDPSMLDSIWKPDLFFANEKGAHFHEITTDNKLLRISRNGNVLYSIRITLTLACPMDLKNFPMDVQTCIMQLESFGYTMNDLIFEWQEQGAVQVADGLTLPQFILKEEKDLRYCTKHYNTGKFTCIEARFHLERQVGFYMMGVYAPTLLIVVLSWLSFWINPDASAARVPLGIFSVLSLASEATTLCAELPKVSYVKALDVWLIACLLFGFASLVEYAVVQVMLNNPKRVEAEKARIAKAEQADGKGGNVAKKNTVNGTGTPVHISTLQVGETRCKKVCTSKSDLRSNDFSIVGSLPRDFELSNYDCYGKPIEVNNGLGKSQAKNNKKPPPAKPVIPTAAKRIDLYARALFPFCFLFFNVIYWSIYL
αWT αT-β19′C GlyR, sequence (P23415 29-449 isoform P23415-2 C69A): as the sequence (P23415 29-449 isoform P23415-2 C69A) above
αWT αT-β19′C GlyR, sequence (P48167 23-497 with the stated changes): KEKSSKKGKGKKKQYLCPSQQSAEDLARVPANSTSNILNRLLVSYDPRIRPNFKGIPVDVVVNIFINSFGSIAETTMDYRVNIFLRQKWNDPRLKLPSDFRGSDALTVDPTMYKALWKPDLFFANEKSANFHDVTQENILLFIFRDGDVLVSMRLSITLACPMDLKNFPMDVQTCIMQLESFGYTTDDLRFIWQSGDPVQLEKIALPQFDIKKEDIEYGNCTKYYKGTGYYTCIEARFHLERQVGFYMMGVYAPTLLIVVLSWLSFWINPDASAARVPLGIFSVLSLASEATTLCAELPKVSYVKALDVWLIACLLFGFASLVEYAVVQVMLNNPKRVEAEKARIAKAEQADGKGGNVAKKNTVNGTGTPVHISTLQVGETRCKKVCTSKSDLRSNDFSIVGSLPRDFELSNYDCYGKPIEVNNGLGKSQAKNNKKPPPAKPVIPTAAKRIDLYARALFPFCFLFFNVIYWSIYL
αWT β19′C GlyR, sequence (P23415 29-449 isoform P23415-2 C69A): as the sequence (P23415 29-449 isoform P23415-2 C69A) above
αWT β19′C GlyR, sequence (P48167 23-497 C137A/C313A/A317C): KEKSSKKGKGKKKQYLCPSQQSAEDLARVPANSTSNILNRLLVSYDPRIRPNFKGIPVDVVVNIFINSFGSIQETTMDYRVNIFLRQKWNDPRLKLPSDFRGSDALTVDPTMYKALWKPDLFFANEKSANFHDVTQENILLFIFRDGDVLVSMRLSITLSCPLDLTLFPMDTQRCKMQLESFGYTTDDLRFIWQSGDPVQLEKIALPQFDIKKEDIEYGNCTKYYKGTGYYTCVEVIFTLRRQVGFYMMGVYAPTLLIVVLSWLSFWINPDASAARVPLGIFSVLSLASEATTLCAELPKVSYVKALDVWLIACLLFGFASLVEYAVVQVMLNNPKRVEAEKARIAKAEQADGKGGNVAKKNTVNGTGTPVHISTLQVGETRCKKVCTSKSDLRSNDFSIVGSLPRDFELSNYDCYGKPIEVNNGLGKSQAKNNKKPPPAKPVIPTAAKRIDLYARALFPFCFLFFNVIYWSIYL
αWT αB-β19′C GlyR, sequence (P23415 29-449 isoform P23415-2 C69A): as the sequence (P23415 29-449 isoform P23415-2 C69A) above
αWT αB-β19′C GlyR, sequence (P23415+P48167 fused with the stated changes): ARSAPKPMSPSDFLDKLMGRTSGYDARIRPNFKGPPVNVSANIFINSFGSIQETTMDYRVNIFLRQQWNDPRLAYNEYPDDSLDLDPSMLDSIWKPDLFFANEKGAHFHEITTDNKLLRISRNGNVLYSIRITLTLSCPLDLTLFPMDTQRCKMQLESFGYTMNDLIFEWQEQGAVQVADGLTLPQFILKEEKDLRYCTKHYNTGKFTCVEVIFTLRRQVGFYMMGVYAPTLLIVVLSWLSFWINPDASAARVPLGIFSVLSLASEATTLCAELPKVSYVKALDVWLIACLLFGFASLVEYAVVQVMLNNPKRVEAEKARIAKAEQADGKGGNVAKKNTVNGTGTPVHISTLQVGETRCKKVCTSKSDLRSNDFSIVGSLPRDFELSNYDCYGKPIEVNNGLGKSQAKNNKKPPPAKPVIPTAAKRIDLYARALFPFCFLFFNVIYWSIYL
homomeric α1Y27′A GlyR, sequence (P23415 29-457 Y307A): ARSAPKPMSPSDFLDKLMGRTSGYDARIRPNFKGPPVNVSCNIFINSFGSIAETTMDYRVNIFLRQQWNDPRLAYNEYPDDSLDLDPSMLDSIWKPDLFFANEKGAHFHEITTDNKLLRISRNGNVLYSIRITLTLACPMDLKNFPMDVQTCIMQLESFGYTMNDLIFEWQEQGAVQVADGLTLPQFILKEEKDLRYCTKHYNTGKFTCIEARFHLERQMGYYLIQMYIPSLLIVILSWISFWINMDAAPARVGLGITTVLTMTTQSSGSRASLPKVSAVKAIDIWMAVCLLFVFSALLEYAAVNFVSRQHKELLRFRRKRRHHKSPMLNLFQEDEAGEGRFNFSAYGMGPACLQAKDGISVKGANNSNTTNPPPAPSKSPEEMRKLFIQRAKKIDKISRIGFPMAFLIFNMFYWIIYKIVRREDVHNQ

## NCC(=O)O [glycine]
[1]
  current upon application of glycine: neither chimera, when transfected alone into HEK293 cells, induced any current
αY27′A β-αWT GlyR; [3]
  nH: 1.0±0.1
αY27′A β-αWT GlyR; glycine-induced current
  Imax: 1.3±0.3 nA
Homomeric α1Y27′A GlyR
  glycine-induced current: no glycine-induced current was detected
αY27′A βWT GlyR; [3]
  nH: 1.1±0.0
αY27′A βWT GlyR; glycine-induced current
  Imax: 2.0±1.0 nA
αY27′A α-βWT GlyR; [3]
  nH: 0.78±0.03
αY27′A α-βWT GlyR; glycine-induced current
  Imax: 5.7±1.3 nA
αWT αT-β19′C GlyR
  Current Imax: 2.19±0.20 µA
  Current nH: 1.45±0.06
  Fluorescence Fmax: 11.5±0.6%
  Fluorescence nH: 2.31±0.06
αWT β19′C GlyR
  Current Imax: 2.46±0.19 µA
  Current nH: 2.73±0.38
  Fluorescence Fmax: 7.58±0.84%
  Fluorescence nH: 1.47±0.12
αWT αB-β19′C GlyR
  Current Imax: 2.57±0.14 µA
  Current nH: 2.11±0.11
  Fluorescence Fmax: 8.52±1.07%
  Fluorescence nH: 1.19±0.12
α19′C βWT GlyR
  Current Imax: 3.51±0.24 µA
  Current nH: 1.20±0.16
  Fluorescence Fmax: 9.42±0.53%
  Fluorescence nH: 0.97±0.04
αWT β-α19′C GlyR
  Current Imax: 3.19±0.08 µA
  Current nH: 2.26±0.11
  Fluorescence Fmax: 3.86±0.37%
  Fluorescence nH: 1.15±0.05
αWT α-β19′C GlyR
  Current Imax: 1.53±0.09 µA
  Current nH: 2.36±0.32
  Fluorescence Fmax: 6.58±1.17%
  Fluorescence nH: 2.10±0.13
[2]
  glycine-induced current and fluorescence changes: neither glycine-induced current nor fluorescence changes could be detected
